From patent US20100145266A1, “METHOD FOR LOADING STRUCTURED SURFACES” (priority 2007, published 2010)

Tests used:
[1] = Stability of paclitaxel depending on pH; format: physicochemical
physchem = assay: physchem
Description: Preferably 1 mg-150 mg, more preferably 10 mg to 90 mg and most preferably 40 mg to 60 mg of paclitaxel are dissolved in one ml of DMSO.

stability at alkaline pH ([1]; alkaline pH): comparatively instable | stability at a pH between 3 and 5 ([1]; pH between 3 and 5): especially stable | solubility in anhydrous ethanol (physchem): highly soluble | solubility in dimethyl sulfoxide (DMSO) (physchem): highly soluble | solubility in methanol (physchem): highly soluble | solubility (physchem; organic solvent or mixture): ≤ 150 mg/mL
SMILES: CC(=O)O[C@H]1C(=O)[C@@]2(C)[C@H]([C@H](OC(=O)c3ccccc3)[C@]3(O)C[C@H](OC(=O)[C@H](O)[C@@H](NC(=O)c4ccccc4)c4ccccc4)C(C)=C1C3(C)C)[C@]1(OC(C)=O)CO[C@@H]1C[C@@H]2O (relative stereo) [paclitaxel, [2aR-[2a,4,4a,6,9(R*,S*),11,12,12a,12b]]-(benzoylamino)-hydroxybenzene propionic acid 6,12b-bis-(acetyloxy)-12-(benzoyloxy)-2a-3,4,4a,5,6,9,10,11,12,12a,12b-dodecahydro-4,11-dihydroxy-4a,8,13,13-tetramethyl-5-oxo-7,11-methano-1H-cyclodeca[3,4]benz[1,2-b]oxet-9-yl ester)]
